Data on one compound can be found in US20060183794A1, “Drug composition containing nf-kb inhibitor” (priority 2002, published 2006).

The test system of series [1] is adhesion of leukocytes and HL-60 cells to HUVECs. Description: Adhesion of leukocytes and HL-60 cells to TNF-α-stimulated HUVECs. The format is cell-based, human. The conditions noted are these: DHMEQ 3 μg/ml; TNF-α stimulation 3, 6, 9 hours. Here is the method: HUVECs were plated 24 well plates and confluently cultured. The culture medium was composed of 9.8 g/l medium 199 (provided from Nissui), 1.8 g/l NaHCO3 (Wako), 10 ml/l 1M Hepes buffer (Sigma), 30 mg/l ECGS (Becton Dickinson), 6 ml/l heparin sodium injection (Takeda Pharmaceutical), and 10% heat-inactivated FBS (JRH). Subsequently, the following experiments were conducted. […] In this experiment, mononuclear cells isolated by the specific gravity centrifugation method were used as leukocytes.
After stimulation with TNF-α, the wells were washed twice with HBSS+ (provided from Nissui) and the culture medium was changed to 500 μl of a fresh medium composed of 9.8 g/l medium 199 (provided from Nissui), 1.8 g/l NaHCO3 (Wako), 10 ml/l 1M Hepes buffer (Sigma), 30 mg/l ECGS (Becton Dickinson), 6 ml/l heparin sodium injection (Takeda Pharmaceutical), and 10% heat-inactivated FBS (JRH). Leukocytes and HL-60 cells were placed in wells at 2×10^5 cells/well and 7×10^4 cells/well, respectively. […] That state was photographed and the number of cells adhered to HUVECs was counted.

Series [2] concerns the target T1, NF-κB (Homo sapiens, UniProt P19838+Q04206). Description: Gel shift assay (EMSA) of NF-κB activation in stimulated HUVECs. Set-up: endogenous in cells; host or cells: MCF-7 cells treated with TNF-α. The settings on record: DHMEQ 3 μg/ml, 2 h pretreatment. In kind it is cell-based. The source says:
HUVECs were pretreated with DHMEQ as follows. […] Nuclear extract was thus obtained.
Background: In EMSA bound probe runs differently from free probe, usually more slowly.
Target sequence in this assay (Q04206 whole entry): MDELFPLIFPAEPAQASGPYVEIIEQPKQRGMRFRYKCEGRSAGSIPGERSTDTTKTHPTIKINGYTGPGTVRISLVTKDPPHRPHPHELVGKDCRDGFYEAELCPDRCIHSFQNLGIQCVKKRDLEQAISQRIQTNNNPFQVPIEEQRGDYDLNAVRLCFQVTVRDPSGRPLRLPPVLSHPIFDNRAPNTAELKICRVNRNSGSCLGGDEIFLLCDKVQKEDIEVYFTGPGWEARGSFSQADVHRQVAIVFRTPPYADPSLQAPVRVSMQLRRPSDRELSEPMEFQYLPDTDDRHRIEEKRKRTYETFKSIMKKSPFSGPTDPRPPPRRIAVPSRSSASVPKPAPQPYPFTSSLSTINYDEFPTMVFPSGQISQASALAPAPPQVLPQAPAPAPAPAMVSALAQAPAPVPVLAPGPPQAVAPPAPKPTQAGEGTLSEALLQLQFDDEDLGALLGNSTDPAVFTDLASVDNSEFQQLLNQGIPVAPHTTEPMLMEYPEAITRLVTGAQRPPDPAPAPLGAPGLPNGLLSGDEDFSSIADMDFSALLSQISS
Target sequence in this assay (P19838 1-433 limits assumed): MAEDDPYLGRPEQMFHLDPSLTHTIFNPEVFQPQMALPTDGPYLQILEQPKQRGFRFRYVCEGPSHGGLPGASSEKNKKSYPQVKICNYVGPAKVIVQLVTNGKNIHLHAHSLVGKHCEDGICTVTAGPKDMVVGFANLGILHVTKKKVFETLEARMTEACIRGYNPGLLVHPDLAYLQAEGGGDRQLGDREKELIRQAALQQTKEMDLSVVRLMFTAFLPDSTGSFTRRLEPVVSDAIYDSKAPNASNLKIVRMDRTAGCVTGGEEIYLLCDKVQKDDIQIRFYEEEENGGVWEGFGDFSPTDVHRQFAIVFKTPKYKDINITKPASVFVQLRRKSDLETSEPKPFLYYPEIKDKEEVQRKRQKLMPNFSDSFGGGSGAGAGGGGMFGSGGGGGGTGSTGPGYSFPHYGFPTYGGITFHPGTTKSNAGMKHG

The target of series [3] is T1, NF-κB. Briefly: Gel shift assay of constitutive NF-κB activation in ATL cell lines. The format is cell-based. Set-up: endogenous in cells. The settings on record: MT-1 and TL-Om1; 10 μg/ml DHM2EQ, 12 hours. Here is the method:
(§1) The ATL cell lines (MT-1 and TL-Om1) and the control cell lines (K562 and Jurkat+TNF), 2×10^6 cells each, were treated with 10 μg/ml DHM2EQ for 12 hours, and nuclear extract was prepared from each cell line. Likewise, nuclear extract was prepared also from the cell lines not treated with DHM2EQ. MT-1 and TL-Om1 are the cell lines transformed with HTLV-1; NF-κB is activated in these cell lines. K562 (myelocytic leukemia cell line) is a cell line in which constitutive NF-κB is not confirmed (a negative control), and Jurkat+TNF is a […] consensus oligomers (Promega) were end-labeled with [γ-^32P]-ATP and polynucleotide kinase (PNK) to prepare ^32P-labeled NF-κB probes.
(§2) The equivalent of 2 μg of nuclear extract protein was mixed with NF-κB probes (the equivalent of 10,000 cpm) in a volume of 20 μl and reacted at room temperature for 30 min. The solution after the reaction was subjected to 7.5% polyacrylamide gel electrophoresis. The gel was then dried and exposed to an X-ray film.
Target sequence in this assay (Q04206 whole entry): as the sequence (Q04206 whole entry) above
Target sequence in this assay (P19838 1-433 limits assumed): as the sequence (P19838 1-433 limits assumed) above

Series [4] concerns the target T1, NF-κB. Briefly: Gel shift assay of constitutive NF-κB activation in Hodgkin's lymphoma cell lines. In kind it is cell-based. Set-up: endogenous in cells; host or cells: HL cell lines KMH2, L428, L540, HDLM2 (A30: KMH2 treated with antitumor agents). Here is the method:
as §1, §2
The HL cell lines, KMH2, L428, L540, and HDLM2, and the control cell line K562 (2×10^6 cells each) were treated with 10 μg/ml DHMEQ for 12 hours, and nuclear extract was prepared from each cell line. The gel shift assay was performed in the same method as in Example 4 (1) and the inhibitory effect on NF-κB was examined. […] Cell line K562 (myelocytic leukemia cell line) is a cell line in which constitutive activation of NF-κB is not observed, and thus used as the negative control. On the other hand, the TNF-treated Jurkat (Jurkat+TNF) was used as the positive control.
Next, the HL cell lines KMH2 and L540 were treated with 10 μg/ml DHMEQ and nuclear extract was prepared from each cell line. The gel shift assay was performed in the same method as in Example 4 (1) and the time-course inhibitory effect on NF-κB was examined.
Thus, investigation was performed to determine whether these signals have NF-κB-specific subunits of DHMEQ resistance. Further, the HL cell lines, KMH2, L428L-540, and HDLM2 were treated with 5 μg/ml DHMEQ for 12 hours, and the remaining component of NF-κB was supershifted with antibodies against p50, p65, and c-Rel according to the same method as described in Example 1.
Target sequence in this assay (P19838 1-433 limits assumed): as above
Target sequence in this assay (Q04206 whole entry): as the sequence (Q04206 whole entry) above

The subject of series [5] is ATL cell lines (MT-1 and TL-Om1). Description: MTT assay, proliferation of ATL cell lines. In kind it is cell-based, human. The method, then:
Cells from the ATL cell lines (MT-1 and TL-Om1) and a control cell line (K562) were plated in 96-well plates at 1×10^5 cells/well and DHM2EQ was added at the desired final concentrations (2, 5, and 10 μg/ml). Cells to which the solvent DMSO had been added in equal volume (0 μg/ml) were used as […] incubation for 72 hours, cell viability was judged by the MTT assay. Relative MTT values were obtained as the ratio of the MMT values of DHM2EQ-treated cells to those of DHM2EQ-untreated cells, i.e., (MTT values of DHM2EQ-treated cells/MTT values of DHM2EQ-untreated cells)×100(%).
DHM2EQ was added to the ATL cell lines (MT-1 and TL-Om1) and a control cell line (K562) at a final concentration of 10 μg/ml and the cells were incubated for 12, 24, 48, and 72 hours. The proliferation-inhibitory effect was examined by the MTT assay. Cells to which the solvent DMSO had been added in equal volume were used as controls. Relative MTT values were obtained in the same manner as the aforementioned (1).
Background: Formazan colour is commonly taken as a measure of viable cells.

Series [6] deals with human breast cancer cell line MCF-7 transplanted into SCID mice. Description: MCF-7 subcutaneous tumor model in SCID mice. The conditions noted are these: DHMEQ 4 mg/kg i.p. three times per week. The format is in vivo. Here is the method:
Subcutaneous tumor model SCID mice (CLEA Japan) were given DHMEQ (4 mg/kg) three days a week and the volume of the tumors were periodically measured for examination of the suppressive effect of DHMEQ on tumor growth. The body weights of the mice were also measured simultaneously.
MCF-7 (1×10^6 cells) suspended in 100 μl of PBS was inoculated subcutaneously into the back of six-week-old SCID mice. DHMEQ was suspended in 0.5% methylcellulose (Nacalai Tesque) solution at 4 mg/kg in 200 μl. The drug-containing solution or 0.5% methylcellulose solution (200 μl) was intraperitoneally administered three times per week (n=8/group), starting on the next day after inoculation. The major axis and minor axis of the tumors were measured with calipers every seven days. The tumor volume was calculated as follows: (major axis)×(minor axis)^2/2. The body weights were also measured simultaneously.

As for `O=C(NC1=CC(=O)C2OC2C1O)c1ccccc1O` (centres unmarked) [DHMEQ, 5,6-epoxy-4-hydroxy-3-salicyloylamino-2-cyclohexenone], the “adhesion of leukocytes and HL-60 cells to HUVECs” value in series [1] was “markedly suppressed”. Also, at NF-κB [2], the “activation of NF-κB in HUVECs caused by TNF-α, IL-1β, and LPS” value is “completely suppressed”. The “signal of NF-κB (gel shift)” value at NF-κB [3] is recorded as “almost lost”. The “signals by NF-κB (gel shift)” value on NF-κB [4] (KMH2, L428, L540, HDLM2, 10 μg/ml, 12 hours) is “almost lost”. On NF-κB [4] (KMH2 and L540, 10 μg/ml), the “persistence of inhibition of NF-κB activation” value is recorded as “sustained even after a lapse of 16 hours”. Moreover, the “activation of NF-κB, time course (gel shift)” value at NF-κB [4] (KMH2 and L540, 10 μg/ml, 1 hour after treatment) is “almost inhibited”. Also, the “remaining NF-κB signals after DHMEQ treatment” value at NF-κB [4] (L428 and KMH2) is “weak signals remain”. For the same compound, the “cell proliferation, time course (MTT)” value in series [5] (10 μg/ml, 12, 24, 48, 72 hours) is given as “inhibited in proportion to the DHM2EQ treatment time”. Besides, the “cell proliferation, concentration dependence (MTT)” value in series [5] (2, 5, 10 μg/ml, 72 hours) is given as “inhibited in proportion to the DHM2EQ concentrations added”. Also, in series [6], the “mortality or weight loss of the mice” value is “No mortality or weight loss”. Moreover, the “tumor growth (tumor volume)” value in series [6] (MCF-7 s.c.) is “significant suppressive effect”.
